Values quoted from earlier work as cited in patent publication US20220289809A1, “USE OF RELAXIN TO TREAT ATRIAL FIBRILLATION” (University of Pittsburgh - Of the Commonwealth System of …, priority 2012, published 2022).

Tested on: CHF canine model

For Cc1ccc(=O)n(-c2ccccc2)c1 [Pirfenidone], the “atrial CV” value is given as “did not generate a significantly greater increase in atrial CV” and the “fibrosis and AF” value is given as “reverse fibrosis and attenuate AF”.
